{"source": "patent US6242450A", "about": "“5-HT1F antagonists” (Eli Lilly and Company, priority 1999, dated 2001)", "system": "male Wister rats", "test": "Social interaction test of anxiety", "type": "in vivo", "details": "rat, 20 mg/kg intraperitoneal, 1 hour before test, 5 minutes observation, significance at p<0.01", "procedure": "The procedure for this assay is summarized below.\nAll experiments were performed on male Wister rats (Harlan laboratories, 275-300 gm). The rats were individually housed in a temperatu,re controlled room (72° F.) on a 12 hour day/night cycle. The rats were provided food and water ad libitum.\nApproximately 40 mg of the test compound was weighed into a 20 mL glass vial. To this solid were added 80 μL of lactic acid (85%). The mixture was sonicated for 2 minutes and then 4 mL of distilled water was added in 1 mL increments. Sonication of this mixture was continued until all of the solid had dissolved. Following sonication, the pH of the mixture was raised by the addition of dilute aqueous sodium hydroxide until the mixture reached a pH of about 5.5.\nEach rat was weighed and the test compound administered by intraperitoneal injection at 20 mg/kg of body weight. […]\nExperimental anxiety was measured by a social interaction test. […] A video camera was fixed above the social interaction box and all behavioral tests were recorded. […] The amount of time that the rat which received test compound spent interacting (i.e. grooming, sniffing, crawling upon) with the other rat was recorded. […]\nSocial interaction data was analyzed as total interaction time in seconds and the raw scores were compared between baseline and treatment. […]"}
{"smiles": "O[C@H](COc1ccc2ccccc2c1)CN1CCC(O)(c2cnc3ccccc3c2)CC1", "note": "[Example 37, 1-((2S)-hydroxy-3-(naphth-2-yloxy)prop-1-yl)-4-hydroxy-4-(quinolin-3-yl)piperidine]", "values": [{"measurement": "social interaction time as compared to baseline", "value": "significantly increase social interaction time as compared to baseline"}]}
